For the test, the target named is T1, Human GLP-1R (Homo sapiens, UniProt P43220).
T1 construct: expressed in transfected cells; host or cells: CRE-bla CHO-K1 (Chinese hamster ovary) cells
The test is described as follows: EC20 GLP-1(9-36) PAM cAMP assay: dose response of compound in the presence of fixed concentration of GLP-1(9-36). The class given is cell-based. Conditions: Human GLP-1R CRE-bla CHO-K1 cells, 60 nM GLP-1(9-36), 30 minutes at 37° C. The protocol: EC20GLP-1(9-36) PAM cAMP Assay: Dose Response of Compound in the Presence of Fixed Concentration of GLP-1 (9-36)
Human GLP-1R CRE-bla CHO-K1 cells were cultured in growth medium (DMEM-High glucose, 10% dialyzed FBS, 0.1 mM NEAA, 25 mM Hepes, 100 U/mL penicillin/100 μg/mL streptomycin, 5 μg/mL Blasticidin, 600 μg/mL Hygromycin), trypsinized and plated in suspension into 384-well white flat bottom plates at 5000 cells/well in 12 μL assay buffer (Hank's Balanced Salt Solution, 10 mM Hepes, 0.1% BSA, pH 7.4). Each compound at a 5× concentration was diluted to a final concentration range of 10 to 0.01 μM (11 points) in assay buffer containing 1.5 mM IBMX and 4% DMSO. GLP-1(9-36) was diluted from 4.2 μM (30 x) to a final assay concentration of 60 nM in assay buffer containing 1.5 mM IBMX and 4% DMSO. Each compound concentration (5×) was added (3 μL), followed by 0.5 μL of GLP-1(9-36) and cells incubated for 30 minutes at 37° C. The peptide was added to the wells using siliconized tips. The reaction was stopped and levels of cAMP were quantified using the DiscoverX HitHunter cAMP kit according to the manufacturer's instructions and luminescence was detected using a SpectraMax M5 Multi-Mode Microplate reader. Luminescence was converted to total cAMP using a cAMP standard curve and data were analyzed by non-linear regression to determine the EC50 and Emax for each compound.
In general terms: Cyclic AMP is a second messenger, typically raised through Gs and lowered through Gi signalling.

The structures appear in SMILES notation. pEC50: −log10 of the molar value.

As usually defined, the pEC50 is −log10 of the EC50, conventionally taken in molar units.

T1 sequence (P43220 24-463): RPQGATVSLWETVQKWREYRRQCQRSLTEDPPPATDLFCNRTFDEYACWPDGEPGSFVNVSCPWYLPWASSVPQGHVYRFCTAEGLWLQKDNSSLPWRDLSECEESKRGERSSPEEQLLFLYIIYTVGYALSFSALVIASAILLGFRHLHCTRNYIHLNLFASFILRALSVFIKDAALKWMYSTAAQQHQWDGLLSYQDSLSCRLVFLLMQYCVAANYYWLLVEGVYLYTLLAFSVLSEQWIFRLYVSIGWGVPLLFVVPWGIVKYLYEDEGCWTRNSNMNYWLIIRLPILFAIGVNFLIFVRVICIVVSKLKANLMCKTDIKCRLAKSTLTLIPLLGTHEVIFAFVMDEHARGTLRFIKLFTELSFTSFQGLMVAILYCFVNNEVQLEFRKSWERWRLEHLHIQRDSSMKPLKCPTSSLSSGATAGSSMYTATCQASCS

Regarding `CC[C@H]1CC[C@H](C2CC=C(c3cnc(-c4ccc(CN(CC(=O)O)C(=O)c5ccc(NC(=O)CCc6ccc(OC)cc6)cc5)cc4)nc3)CC2)CC1` (stereo partly drawn) [Compound 93], the pEC50 is above 6.10.
With `CC[C@H]1CC[C@H](C2CC=C(c3cnc(-c4ccc(CN(CC(=O)N5CC[C@H](C(=O)O)C5)C(=O)c5ccc(NC(=O)Cc6ccc(OC)cc6C(F)(F)F)cc5)cc4)nc3)CC2)CC1` (stereo partly drawn) [Compound 15] the figure was above 6.10.
Turning to `COc1ccc(CC(=O)Nc2ccc(C(=O)N(CC(=O)O)Cc3ccc(-c4ncc(C5=CCC(C(C)(C)C)CC5)cn4)cc3)cc2)c(C(F)(F)F)c1` (stereo not drawn) [Compound 77], the pEC50 is 5.30 to 5.60.
The result for `COc1ccc(CC(=O)Nc2ccc(C(=O)N(CC(=O)O)Cc3ccc(-c4cnc(C5=CCC(C(C)C)CC5)cn4)cc3)cc2)cc1` (stereo not drawn) [Compound 88] reads 5.60 to 6.10; that for `CC[C@H]1CC[C@@H]([C@@H]2CC=C(c3cnc(-c4ccc(CN(CC(=O)O)C(=O)CNC(=O)Cc5ccc(OC)cc5)cc4)nc3)CC2)CC1` [Compound 118], 5.60 to 6.10; that for `CC[C@H]1CC[C@H](C2CC=C(c3cnc(-c4ccc(CN(CC(=O)O)C(=O)CCC(=O)CN5c6cccc7cccc(c67)S5(=O)=O)cc4)nc3)CC2)CC1` (stereo partly drawn) [Compound 127], above 6.10.

These data come from patent US11530205B2, “GLP-1 receptor modulators” (RECEPTOS LLC, priority 2017, dated 2022).
